Data set [1] relates to HDAC-2. Description: HDAC-2 protein levels in HEK293T cells (Westernblot). Type of data set: cell-based, human. Particulars: for effect of protease inhibitor on control or VPA-repressed HDAC-2 protein levels: 24 h with or without VPA, FIG. 9A; for effect of proteasome inhibitor on VPA-induced degradation of HDAC-2: co-treatment with VPA, inhibitor added 4 h before harvest, FIG. 9B. As to the method: (§1) FIG. 6: (A) F9 teratocarcinoma or HEK293T embryonic kidney cells were exposed for indicated times to 1 mM VPA. Protein levels of HDAC-2 and HDACs 1 or 3 for reference (HDAC8; N-CoR and Sin3 as data not shown) were determined by Westernblot analysis. […] (C) The effect of other HDAC inhibitors on the amount of HDAC-2 protein was determined by using TSA (100 nM) in a time course analysis in F9 cells (left panel). The HDAC inhibitors TSA (100 nM), trapoxin (TPX, 10 nM), butyrate (1.5 mM) or MS275 (5 μM) were tested at a single time of exposure in HEK293T cells (right panel).
FIG. 9: (A) HEK293T cells were treated for 24 h with VPA or left untreated. The cell penetrating protease inhibitors pepstatin A, leupeptin, or ALLM were added as indicated at the time of VPA addition. (B) Proteasome inhibitors ALLN or MG-132 were added at the indicated concentrations 4 h before cells were harvested. Protein levels of HDAC-2 were determined by Westernblot analysis.

Data set [2] deals with HDAC-2. In words: Ubiquitinated proteins in anti HDAC-2 immune precipitates (Westernblot against ubiquitin). Particulars: VPA 1.5 mM, 24 h; ALLN 5 μM; FIG. 10A. The class given is cell-based. The text has this: FIG. 10: (A) The total amount of high molecular weight poly-ubiquitinated protein was not altered by VPA treatment of cells (left two lanes). The presence of ubiquitinated proteins in anti HDAC-2 immune precipitates is shown in the right part of the panel. […] Ubiquitinated proteins in the precipitates were detected by Western blot analysis. For lane N a non-immune serum was used instead of the anti HDAC-2 antibody. (B) The presence of mono- and/or oligo-ubiquitinated HDAC-2 upon VPA treatment of HEK293T cells was determined by ectopic expression of His6-tagged ubiquitin followed by VPA-treatment for 36 h as indicated. The proteasome inhibitor MG-132 was added 4 h prior to analysis to enhance the accumulation of ubiquitinated proteins. Electrophoretic mobility and unaltered presence of non-ubiquitinated HDAC-2 were determined by Westernblot analysis of whole cell extracts (left panel). […] Anti-HDAC-2 immuno-reactive bands with the expected mobility of mono- or poly-ubiquitinated HDAC-2 are indicated by a bracket.

The test system of the next data set is RLIM. In words: RLIM protein levels in HEK293T cells (Westernblot). The class given is cell-based, human. Particulars: 24 hours. As to the method:
FIG. 12 (A) RLIM protein levels were determined by Westernblot analysis after treatment of HEK293T cells for 24 hours with the HDAC inhibitors VPA (0.5, 1.5, or 5 mM), TSA (30, 100 or 300 nM) or a combination of VPA (1.5 mM) and TSA (100 nM). Actin protein levels are shown as a control for equal loading. (B) RLIM protein levels were determined by Westernblot analysis after treatment of HEK293T cells for 24 hours with the HDAC inhibitor TSA (100 nM), the proteasome inhibitor ALLN (2.5 μM) or a combination of both. Actin protein levels are shown as a control for equal loading.

Data set [3] relates to stage III/IV non-small cell lung cancer. Particulars: monotherapy, phase II; cited from earlier work.
For data set [4], the system named is HDAC-2. In words: HDAC-2 protein levels in F9 teratocarcinoma cells (Westernblot). Type of data set: cell-based, murine. Here is the method: as §1
For a further data set, the system named is F9 cells. In words: Toxicity in F9 cells (cell loss, actin loading control). The class given is cell-based, murine. Particulars: 48 h TSA (100 nM). Here is the method: as §1
A further data set relates to T-cell lymphomas. Particulars: phase II; cited from earlier work.
The next data set deals with TRAIL. In words: TRAIL expression in spleen after in vivo treatment (RNAse protection assay). Details: species or system mice. Particulars: leukemic mice; 96 hours of retinoic acid treatment (21-day-release pellet, 5 mg RA); FIG. 4A.
The next data set concerns HDACs. Description: Inhibition of HDACs. Type of data set: biochemical.
The test system of another data set is PML-RAR leukemia. Particulars: one PML-RAR patient with multiple relapses after retinoic acid; cited from earlier work.
The mark [5] stands for this setting: HEK293T cells, VPA 1 mM, TSA 100 nM, trapoxin 10 nM, butyrate 1.5 mM, MS275 5 μM.

This is an account of results in patent US20130231472A1, “USE OF MOLECULAR MARKERS FOR THE PRECLINICAL PROFILING OF INHIBITORS OF ENZYMES HAVING HISTONE DEACETYLASE ACTIVITY” (priority 2002, published 2013).

Square brackets hold non-standard residues; d marks the D form. Peptide text beside a SMILES is read from it. * marks the point of attachment. Aoe = N[C@@H](CCCCCC(=O)[C@@H]1CO1)C(=O)O; Sta = CC(C)C[C@H](N)[C@@H](O)CC(=O)O; Isovaleryl = CC(C)CC(=O)*; Nle = CCCC[C@H](N)C(=O)O; Cbz = O=C(OCc1ccccc1)*

Sequence of HDAC-4 (P56524 whole entry): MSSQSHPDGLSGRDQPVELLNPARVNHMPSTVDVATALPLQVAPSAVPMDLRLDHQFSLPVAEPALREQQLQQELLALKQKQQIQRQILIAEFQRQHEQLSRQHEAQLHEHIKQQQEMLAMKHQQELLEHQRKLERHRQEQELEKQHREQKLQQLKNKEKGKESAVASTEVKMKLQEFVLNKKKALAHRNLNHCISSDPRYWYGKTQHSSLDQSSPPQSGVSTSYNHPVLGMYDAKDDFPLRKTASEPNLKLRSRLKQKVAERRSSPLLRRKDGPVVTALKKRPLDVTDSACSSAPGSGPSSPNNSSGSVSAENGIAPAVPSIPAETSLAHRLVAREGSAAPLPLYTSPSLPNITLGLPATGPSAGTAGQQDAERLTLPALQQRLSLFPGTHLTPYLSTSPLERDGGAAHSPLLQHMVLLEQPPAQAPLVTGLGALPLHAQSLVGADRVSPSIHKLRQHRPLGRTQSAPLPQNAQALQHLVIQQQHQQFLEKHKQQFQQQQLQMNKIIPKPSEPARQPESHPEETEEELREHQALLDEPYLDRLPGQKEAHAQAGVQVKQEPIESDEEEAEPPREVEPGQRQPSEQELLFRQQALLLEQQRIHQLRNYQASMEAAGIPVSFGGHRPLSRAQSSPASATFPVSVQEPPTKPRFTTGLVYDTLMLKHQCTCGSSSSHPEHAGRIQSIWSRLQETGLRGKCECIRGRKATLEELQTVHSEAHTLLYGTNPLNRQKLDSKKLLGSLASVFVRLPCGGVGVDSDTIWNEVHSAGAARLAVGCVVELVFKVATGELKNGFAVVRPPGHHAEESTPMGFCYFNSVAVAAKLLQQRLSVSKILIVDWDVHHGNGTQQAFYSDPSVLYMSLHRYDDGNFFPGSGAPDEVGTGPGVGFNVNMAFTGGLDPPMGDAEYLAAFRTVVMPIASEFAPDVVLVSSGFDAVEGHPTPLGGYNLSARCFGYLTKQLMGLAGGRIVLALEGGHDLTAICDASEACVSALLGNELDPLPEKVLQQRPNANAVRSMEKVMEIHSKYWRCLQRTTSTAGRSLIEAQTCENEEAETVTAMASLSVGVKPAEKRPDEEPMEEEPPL
Method for TRAIL: Leukemic mice or healthy mice (Ctrl) were then treated with placebo (lanes 1, 3), VPA (400 mg/kg every 12 hours), all-trans retinoic acid (a 21-day-release pellet containing 5 mg RA or placebo: lanes 8-9), and VPA plus retinoic acid (lanes 10-11). Mice were sacrificed 18 hours (lanes 4-5), or 36 hours after beginning of treatment (lanes 3, 6-7, 10-11): total RNAs were collected from the spleens (with a >75% invasion of leukemic blasts as assessed by Giemsa staining) and analyzed by RNAse protection assay to check for expression of TRAIL.

Consider `CSCC[C@@H](C=O)NC(=O)[C@H](CC(C)C)NC(=O)[C@H](CC(C)C)NC(C)=O` [ALLM] (Ac-Leu-Leu-Met-aldehyde), for which the “effect of protease inhibitor on control or VPA-repressed HDAC-2 protein levels” value (shortened to “effect of protease inhibitor”) in the data set with HDAC-2 [1] (HEK293T cells) is recorded as “Neither of the protease inhibitors pepstatin A, leupeptin or ALLM had an effect”.

Regarding `CCCC[C@@H](C=O)NC(=O)[C@H](CC(C)C)NC(=O)[C@H](CC(C)C)NC(C)=O` [ALLN] (Ac-Leu-Leu-[Nle]-aldehyde), the “effect of proteasome inhibitor on VPA-induced degradation of HDAC-2” value with HDAC-2 [1] (HEK293T cells) is “abolished VPA-induces degradation of HDAC-2 completely”. In addition, in the data set on HDAC-2 [2], the “amount of ubiquitinated protein precipitated with antibody against HDAC-2” value is given as “increase the amount of this anti-ubiquitin reactive protein”. In addition, the “block of TSA-induced proteosomal degradation of RLIM” value with RLIM (TSA 100 nM plus ALLN 2.5 μM, FIG. 12B) was “can be blocked”.

As to `CCCC(=O)O` [Butyrate, butyric acid], the HDAC-2 protein levels entry in the data set on HDAC-2 [1] (setting [5]) is recorded as “Reduction of HDAC-2 protein levels”.

On to `CC(C)C[C@@H](C=O)NC(=O)[C@H](CC(C)C)NC(=O)[C@H](CC(C)C)NC(=O)OCc1ccccc1` [MG-132] (Cbz-Leu-Leu-Leu-aldehyde), for which, in the data set with HDAC-2 [1] (HEK293T cells), the “effect of proteasome inhibitor on VPA-induced degradation of HDAC-2” value was “abolished VPA-induces degradation of HDAC-2 completely”.

On to `CCCC(=O)OCOC(=O)C(C)(C)C` [Pivanex], for which the clinical activity result in data set [3] is on record as “demonstrating activity in stage III/IV non-small cell lung cancer”.

For `CC(/C=C/C(=O)NO)=C\[C@@H](C)C(=O)c1ccc(N(C)C)cc1` [TSA, trichostatin A], the HDAC-2 protein levels entry in the data set on HDAC-2 [4] and in the data set with HDAC-2 [1] was “does not reduce HDAC-2 levels” in each case. In addition, in the data set with F9 cells, the “toxicity (cell loss, reduction in actin loading control)” value is reported as “toxic”. The “amount of ubiquitinated protein precipitated with antibody against HDAC-2” value with HDAC-2 [2] was “no effect”. Moreover, the “RLIM protein levels / degradation” value in the data set with RLIM (VPA 0.5, 1.5 or 5 mM, TSA 30, 100 or 300 nM, FIG. 12) was “induce an enhanced proteosomal degradation of the E3 ligase RLIM”.

For the molecule `C/C=C1\NC(=O)[C@H]2CSSCC/C=C/[C@H](CC(=O)N[C@H](C(C)C)C(=O)N2)OC(=O)[C@H](C(C)C)NC1=O` [depsipeptide], in the data set with T-cell lymphomas, the clinical outcome is listed as “used successfully”.

On to `CC(=O)N[C@@H](CC(C)C)C(=O)N[C@@H](CC(C)C)C(=O)N[C@H](C=O)CCCNC(=N)N` [leupeptin], for which, in the data set with HDAC-2 [1] (HEK293T cells), the “effect of protease inhibitor” value was “Neither of the protease inhibitors pepstatin A, leupeptin or ALLM had an effect”.

In the case of `CC(C)CC(=O)N[C@H](C(=O)N[C@H](C(=O)N[C@@H](CC(C)C)[C@@H](O)CC(=O)N[C@@H](C)C(=O)N[C@@H](CC(C)C)[C@@H](O)CC(=O)O)C(C)C)C(C)C` [pepstatin A] (Isovaleryl-VV[Sta]A[Sta]-OH), the “effect of protease inhibitor” value with HDAC-2 [1] (HEK293T cells) was “Neither of the protease inhibitors pepstatin A, leupeptin or ALLM had an effect”.

On to `CC1=C(/C=C/C(C)=C/C=C/C(C)=C/C(=O)O)C(C)(C)CCC1` [retinoic acid, all-trans retinoic acid], for which, in the data set on TRAIL, the “TRAIL expression in spleen” value is “as strongly as upon 96 hours of retinoic acid treatment”.

Consider `O=C1N[C@@H](Cc2ccccc2)C(=O)N2CCC[C@@H]2C(=O)N[C@@H](CCCCCC(=O)[C@@H]2CO2)C(=O)N[C@H]1Cc1ccccc1` [trapoxin] (cyclo(FF[dP][Aoe])), for which the HDAC-2 protein levels entry in the data set with HDAC-2 [1] (setting [5]) is “Neither the cyclic tetrapeptide HDAC inhibitor trapoxin nor the anilide-based HDAC inhibitor MS-275 induces reduction of HDAC-2 protein levels”.

As for `CCCC(CCC)C(N)=O` [valpromide], the HDAC-2 protein levels result in the data set with HDAC-2 [1] (cell line and concentration not stated) was “does not affect HDAC-2 protein levels”. The HDAC inhibition entry with HDACs was “does not inhibit HDACs”.

On to MS-275, for which, in the data set with HDAC-2 [1] (setting [5]), the HDAC-2 protein levels result is “Neither the cyclic tetrapeptide HDAC inhibitor trapoxin nor the anilide-based HDAC inhibitor MS-275 induces reduction of HDAC-2 protein levels”.

Regarding phenylbutyrate, in the data set on PML-RAR leukemia, the “clinical response of leukemia” value is on record as “complete remission of the leukemia”.

B1: E3 ubiquitin ligase RLIM (protein)
chain: MENSDSNDKGSGDQSAAQRRSQMDRLDREEAFYQFVNNLSEEDYRLMRDNNLLGTPGESTEEELLRRLQQIKEGPPPQNSDENRGGDSSDDVSNGDSIIDWLNSVRQTGNTTRSGQRGNQSWRAVCRTNPNSGNFRFSLEINVYSNNGSQNSENENEPSARRSSGENVENNSQRQVENPRSESTSARPSRSERNSTEALTEVPPTRGQRRARSRSPDHRRTRARAERSRSPLHPMSEIPRRSHHSISSQTFEHPLVNETEGSSRTRHHVTLRQQISGPELLSRGLFAASGTRNASQGAGSSDTAASGESTGSGQRPPTIVLDLQVRRVRPGEYRQRDSIASRTRSRSQTPNNTVTYESERGGFRRTFSRSERAGVRTYVSTIRIPIRRILNTGLSETTSVAIQTMLRQIMTGFGELSYFMYSDSDSEPTGSVSNRNMERAESRSGRGGSGGGSSSGSSSSSSSSSSSSSSSSSSSSPSSSSGGESSETSSDLFEGSNEGSSSSGSSGARREGRHRAPVTFDESGSLPFLSLAQFFLLNEDDDDQPRGLTKEQIDNLAMRSFGENDALKTCSVCITEYTEGNKLRKLPCSHEYHVHCIDRWLSENSTCPICRRAVLASGNRESVV
As to B1, in the data set with HDAC-4, the “in vitro ubiquitination (Ubc8 as E2, RLIM as E3)” value is given as “the class II HDAC-4 are substrates for Ubc8/RLIM”.
